“Also recorded” adds a separate entry of the source.
Key:
XS106 cells [1] = assay: FACS analysis of I-A, CD80 and CD86 expression; assay type: cell-based, mouse; conditions: for effect on ATPγS-enhanced CD80 expression: pre-incubated with 300 μM oATP for 2 hours, then GM-CSF/LPS and ATPγS
XS106 cells [2] = assay: Cytokine content of supernatants by ELISA; assay type: cell-based, mouse
BALB/c mice = assay: Contact hypersensitivity (CHS) assay, DNFB, ear swelling; conditions: mouse, in vivo
Langerhans cells = assay: HDK-1 assay: antigen presentation by Langerhans cells, IFNγ by ELISA; assay type: cell-based, BALB/c mice
[3] = tested on: group A streptococcus (GAS); design: species or system Streptococcus pyogenes; conditions: in vivo
CAF1 mice = assay: Tumor vaccine: delayed-type hypersensitivity to tumor-associated antigens (TAA), footpad swelling; conditions: mouse, in vivo

Structure (SMILES): Nc1ncnc2c1ncn2[C@@H](C=O)O[C@@H](C=O)COP(=O)(O)OP(=O)(O)OP(=O)(O)O [oxidized ATP, reference compound]
- effect on ATPγS-enhanced CD80 expression (XS106 cells [1]): inhibits the effect of ATPγS on CD80 expression
- effect on ATPγS-enhanced CD80 expression (XS106 cells [1]; listed as oATP): inhibited
- effect on ATPγS-induced IL-1β secretion (XS106 cells [2]; data not shown): significantly inhibited

Structure (SMILES): Nc1ncnc2c1ncn2[C@@H]1O[C@H](COP(=O)(O)OP(=O)(O)OP(O)(O)=S)[C@@H](O)[C@H]1O [ATPγS]
- expression of CD80 (XS106 cells [1]): enhanced; also recorded: enhances expression
- expression of CD86 (XS106 cells [1]): enhanced; also recorded: enhances expression
- expression of I-A (XS106 cells [1]): enhanced; also recorded: enhances expression
- ear swelling (contact hypersensitivity response) (BALB/c mice): significantly augmented; also recorded: greatest ear swelling; also recorded: increased response upon challenge
- ear swelling (contact hypersensitivity response), ATPγS injected at a site distant from that of immunization (BALB/c mice): no effect on the response
- ear swelling, ATPγS only (not immunized with DNFB) (BALB/c mice): least ear swelling
- IFNγ release by HDK-1 cells (presentation of KLH by LCs) (Langerhans cells): dose-dependent increase; also recorded: augmented the ability of LCs to present KLH
- IFNγ, LCs incubated with ATPγS in the absence of KLH (Langerhans cells): only background levels; also recorded: did not significantly change the background response
- concentration at which the IFNγ response begins to decrease (Langerhans cells): greater than 10^−6 molar
- release of IL-1β (XS106 cells [2]): significantly increased; also recorded: significant increase
- release of IL-10 (XS106 cells [2]): decreasing release; also recorded: decrease
- release of IL-12 (XS106 cells [2]): significantly increased; also recorded: significant increase
- lesion size vs mice immunized with killed GAS alone [3]: much smaller lesions
- mean areas of the lesions [3]: 2.80±1.11 mm^2
- concentrations that induce apoptosis (XS106): greater than 10^−6 molar
- delayed-type hypersensitivity (DTH) response, footpad swelling (CAF1 mice): significantly enhanced; also recorded: significantly greater DTH response

Structure (SMILES): Nc1ncnc2c1ncn2[C@@H]1O[C@H](COP(=O)(O)OP(=O)(O)OP(=O)(O)O)[C@@H](O)[C@H]1O [ATP]
- cell viability (XS 106A cell): No effect on viability
- secretion of IL-1β (XS106 cells [2]; ATP, significant at 10^−3 M and 10^−4 M, NS at 10^−5 M and 10^−6 M): greatly augmented secretion

Reference: US20050053612A1, “Nucleotide regulation of immune responses” (priority 2003, published 2005)
